Where “and” joins values, the source holds several entries; their conditions need not be identical. Equal entries are not always repeated.
Key:
[1] = system: Candida albicans; assay: CLSI broth microdilution MIC (Example 4); assay type: cell-based
Protocol: (§1) Antifungal minimum inhibitory concentration (MIC) testing was undertaken as recommended by the CLSI. Briefly, antifungal susceptibility tests were performed for amphotericin B, robenidine (NCL812) and robenidine (NCL) analogs (NCL004, NCL020, NCL023, NCL024, NCL062, NCL094, NCL097, NCL110, NCL113, NCL114, NCL115, NCL135, NCL139, NCL180, NCL181, NCL195, NCL219, NCL220, NCL228, NCL247, NCL250, NCL259, NCL260, NCL263, NCL265, NCL269, NCL274) by standard broth microdilution method (CLSI) in RPMI 1640. Various concentrations (ranging from high to low) of the selected compounds were prepared in RPMI 1640 medium by double dilution in 96-well microtitre plates. Each well contained an inoculum of approximately 2×10^3 cells/mL. The wells without addition of drugs served as negative (no inoculum) and positive (inoculum only) growth controls. Microtitre plates were incubated at 35° C. for 24-48 hours. […] Antifungal MICs were determined for each isolate in duplicate; if the values obtained were different, the MIC test was repeated a third time.

[2] = system: Cryptococcus neoformans; assay: CLSI broth microdilution MIC (Example 4); assay type: cell-based
Protocol: as §1

[3] = system: Candida albicans; assay: CLSI broth microdilution MIC (Example 5); assay type: cell-based
Protocol: as §1, with “robenidine” for “robenidine (NCL)”, “(NCL23, NCL24, NCL97,” for “(NCL004, NCL020, NCL023, NCL024, NCL062, NCL094, NCL097, NCL110,”, “NCL113,” for “NCL113, NCL114,”, “NCL115,” for “NCL115, NCL135, NCL139, NCL180, NCL181,”, “NCL220,” for “NCL220, NCL228, NCL247, NCL250,”, “NCL265)” for “NCL260, NCL263, NCL265, NCL269, NCL274)”

[4] = system: Cryptococcus neoformans; assay: CLSI broth microdilution MIC (Example 5); assay type: cell-based
Protocol: as §1, with “robenidine” for “robenidine (NCL)”, “(NCL23, NCL24, NCL97,” for “(NCL004, NCL020, NCL023, NCL024, NCL062, NCL094, NCL097, NCL110,”, “NCL113,” for “NCL113, NCL114,”, “NCL115,” for “NCL115, NCL135, NCL139, NCL180, NCL181,”, “NCL220,” for “NCL220, NCL228, NCL247, NCL250,”, “NCL265)” for “NCL260, NCL263, NCL265, NCL269, NCL274)”

[5] = system: Candida albicans; assay: CLSI broth microdilution MIC (Example 6); assay type: cell-based
Protocol: (§2) Antifungal minimum inhibitory concentration (MIC) testing was undertaken as recommended by the CLSI (1). Briefly, antifungal susceptibility tests were performed for amphotericin B, robenidine (NCL812) and 10 robenidine analogs (NCL023, NCL024, NCL097, NCL113, NCL115, NCL195, NCL219, NCL220, NCL259, NCL265) by standard broth microdilution method (CLSI) in RPMI 1640. Various concentrations (ranging from high to low) of the selected compounds were prepared in RPMI 1640 medium by double dilution in 96-well microtitre plates. Each well contained an inoculum of approximately 2×10^3 cells/mL. The wells without addition of drugs served as negative (no inoculum) and positive (inoculum only) growth controls. Microtitre plates were incubated at 35° C. for 24-48 hours. […] Antifungal MICs were determined for each isolate in duplicate; if the values obtained were different, the MIC test was repeated a third time.

[6] = system: Cryptococcus neoformans; assay: CLSI broth microdilution MIC (Example 6); assay type: cell-based
Protocol: as §2

[7] = system: Candida albicans ATCC14053; assay: Broth micro-dilution screen at 16 μg/mL and MIC (Example 9); assay type: cell-based; details: for MIC: C. albicans ATCC14053, test range 0.25-64 μg/mL, duplicate; for Screen at 16 μg/mL: single concentration 16 μg/mL, Growth or No growth of C. albicans ATCC14053
Protocol: The antifungal activity of 201 NCL analogs against Candida albicans ATCC14053 in vitro was investigated. A broth micro-dilution method was used, according to CLSI guidelines as described. NCL analogs were dissolved in DMSO and originally screened at a single concentration of 16 μg/mL.

[8] = system: C. gattii; assay: CLSI broth microdilution MIC (Example 6); assay type: cell-based, Cryptococcus gattii
Protocol: as §2

[9] = clinical isolate C. albicans 12-93301752 Azole Resistant
[10] = clinical isolate C. albicans 14-90045999 Azole Resistant
[11] = clinical isolate C. albicans 15-45171061
[12] = clinical isolate C. albicans 15-91329871
[13] = clinical isolate C. albicans 16-24136919 Azole Resistant
[14] = clinical isolate C. albicans 16-46177400
[15] = clinical isolate C. albicans 16-90050810
[16] = clinical isolate C. albicans 16-90054237
[17] = clinical isolate C. albicans 18-144-00196
[18] = clinical isolate C. albicans 18-148-08188 Azole Resistant
[19] = human clinical isolate C. neoformans serotype A/D hybrid
[20] = human clinical isolate C. neoformans var grubii 16-90050434
[21] = human clinical isolate C. neoformans var grubii 17-90028233
[22] = human clinical isolate C. neoformans var grubii 17-93996464
[23] = human clinical isolate C. neoformans var grubii 17-93996964
[24] = human clinical isolate C. gatti 17-90232099
[25] = human clinical isolate C. gattii 16-90050373
[26] = human clinical isolate C. gattii 17-90028211
[27] = human clinical isolate C. gattii 17-90028217
[28] = human clinical isolate C. gattii 17-90028242

CN(C)c1ccc(/C=N/NC(=N)N/N=C/c2ccc(N(C)C)cc2)cc1.Cl [NCL113]
>32 µg/mL: MIC at 24-48 hours ([1]; Candida albicans ATCC 90028) | MIC at 24-48 hours ([1]; Candida albicans SA3) | MIC ([3]; C. albicans SA3) | MIC ([3]; Candida albicans ATCC 90028) | MIC ([5]; C. albicans SA3) | MIC ([5]; Candida albicans ATCC 90028)
8 µg/mL: MIC [3, 9] | MIC [3, 11] | MIC [3, 12] | MIC [3, 13] | MIC [3, 16] | MIC [3, 17] | MIC [3, 18]
2 to 4 µg/mL: MIC [8, 25] | MIC [8, 28]
16 µg/mL: MIC [3, 14] | MIC [3, 15]
No growth: Screen at 16 μg/mL [7]
4 µg/mL and 8 µg/mL: MIC [7]
8 to 16 µg/mL: MIC [3, 10]
highly active: activity against one or more isolates of Cryptococcus neoformans and Candida albicans ([3]; summary in words)
4 µg/mL: MIC at 24-48 hours ([2]; Cryptococcus neoformans SA1) | MIC at 24-48 hours ([2]; Cryptococcus neoformans SA2) | MIC ([4]; Cryptococcus neoformans SA1) | MIC ([4]; Cryptococcus neoformans SA2) | MIC ([6]; Cryptococcus neoformans SA1) | MIC ([6]; Cryptococcus neoformans SA2) | MIC [6, 19] | MIC [6, 20] | MIC [6, 21] | MIC [6, 22] | MIC [6, 23] | MIC [8, 24] | MIC [8, 26]
4 to 8 µg/mL: MIC [8, 27]

Cl.N=C(NN=Cc1cc(O)c(O)c(O)c1)NN=Cc1cc(O)c(O)c(O)c1 [NCL097]
No growth: Screen at 16 μg/mL [7]
highly active: activity against one or more isolates of Cryptococcus neoformans and Candida albicans ([3]; summary in words)
8 to 16 µg/mL: MIC [3, 17]
active: activity against all tested isolates of Cryptococcus neoformans and Candida albicans ([3]; summary in words)
16 µg/mL and 32 µg/mL: MIC ([6]; human clinical isolate C. neoformans serotype A/D hybrid, listed as NCL97)
4 to 8 µg/mL: MIC [3, 13]
4 µg/mL: MIC [3, 11] | MIC [3, 16]
32 µg/mL: MIC at 24-48 hours ([1]; Candida albicans ATCC 90028) | MIC ([3]; Candida albicans ATCC 90028) | MIC ([5]; Candida albicans ATCC 90028) | MIC [6, 21] | MIC [6, 22] | MIC [6, 23] | MIC [8, 24] | MIC [8, 27] | MIC [8, 28]
0.5 µg/mL: MIC [7]
16 to 32 µg/mL: MIC [6, 20]
8 µg/mL: MIC at 24-48 hours ([1]; Candida albicans SA3) | MIC ([3]; C. albicans SA3) | MIC [3, 9] | MIC [3, 10] | MIC [3, 12] | MIC [3, 14] | MIC [3, 15] | MIC [3, 18] | MIC ([5]; C. albicans SA3)
16 µg/mL: MIC at 24-48 hours ([2]; Cryptococcus neoformans SA1) | MIC at 24-48 hours ([2]; Cryptococcus neoformans SA2) | MIC ([4]; Cryptococcus neoformans SA1) | MIC ([4]; Cryptococcus neoformans SA2) | MIC ([6]; Cryptococcus neoformans SA1) | MIC ([6]; Cryptococcus neoformans SA2) | MIC [8, 25] | MIC [8, 26]
high antifungal activity: antifungal activity against the two isolates of Candida albicans ([1]; summary in words)

COc1ccc(C=NNC(=N)NN=Cc2ccc(OC)c(OC)c2)cc1OC.Cl [NCL115]
>32 µg/mL: MIC at 24-48 hours ([1]; Candida albicans ATCC 90028) | MIC at 24-48 hours ([1]; Candida albicans SA3) | MIC ([3]; C. albicans SA3) | MIC ([3]; Candida albicans ATCC 90028) | MIC ([5]; C. albicans SA3) | MIC ([5]; Candida albicans ATCC 90028) | MIC [6, 19] | MIC [6, 20] | MIC [6, 21] | MIC [6, 22] | MIC [6, 23] | MIC [8, 24] | MIC [8, 25] | MIC [8, 26] | MIC [8, 27] | MIC [8, 28]
8 µg/mL: MIC at 24-48 hours ([2]; Cryptococcus neoformans SA1) | MIC at 24-48 hours ([2]; Cryptococcus neoformans SA2) | MIC [3, 10] | MIC ([4]; Cryptococcus neoformans SA1) | MIC ([4]; Cryptococcus neoformans SA2) | MIC ([6]; Cryptococcus neoformans SA1) | MIC ([6]; Cryptococcus neoformans SA2)
Growth: Screen at 16 μg/mL [7]
highly active: activity against one or more isolates of Cryptococcus neoformans and Candida albicans ([3]; summary in words)
>16 µg/mL: MIC [3, 9] | MIC [3, 11] | MIC [3, 12] | MIC [3, 13] | MIC [3, 14] | MIC [3, 15] | MIC [3, 16] | MIC [3, 17] | MIC [3, 18]
